Assay results published in ChEMBL document CHEMBL2176937, “Small-molecule structure correctors target abnormal protein structure and function: structure corrector rescue of apolipoprotein E4-associated neuropathology” (J Med Chem, 2012).
pEC50, pIC50: −log10 of the molar value.

How the values were obtained:
[1] = Inhibition of apoE4 expressed in Neuro2a cells assessed as increase in COX1 level by Western blot assay; format: cell-based; settings: N2a
[2] = Inhibition of apoE4 expressed in rat PC12 cells assessed as reversal of mitochondrial impairment; format: cell-based; settings: pc-12

Row | pIC50 [1] | pEC50 [2] | Compound
1 | 7.39 | – | Cn1nc(CC(=O)Nc2ccc(CN3CCN(C(=O)OC(C)(C)C)CC3)cc2)c2ccccc2c1=O
2 | – | > 9.00 | Cn1nc(CC(=O)Nc2cccc(-c3ccc(C#N)cc3)c2)c2ccccc2c1=O
